Results taken from ChEMBL document CHEMBL3046096, “CoMFA AND CoMSIA STUDIES ON A SET OF BENZYL PIPERAZINES, PIPERADINES, PYRAZINOPYRIDOINDOLES, PYRAZINOISOQUINOLINES AND SEMI RIGID ANALOGS OF DIPHENHYDRAMINE” (Med Chem Res, 2004).

What follows are compounds tested against Histamine H1 receptor (Cavia porcellus) (UniProt P31389) (assay: Antagonist activity at histamine H1 receptor in Cavia porcellus (guinea pig) ileum).
Histamine H1 receptor (Cavia porcellus), sequence (P31389 whole entry): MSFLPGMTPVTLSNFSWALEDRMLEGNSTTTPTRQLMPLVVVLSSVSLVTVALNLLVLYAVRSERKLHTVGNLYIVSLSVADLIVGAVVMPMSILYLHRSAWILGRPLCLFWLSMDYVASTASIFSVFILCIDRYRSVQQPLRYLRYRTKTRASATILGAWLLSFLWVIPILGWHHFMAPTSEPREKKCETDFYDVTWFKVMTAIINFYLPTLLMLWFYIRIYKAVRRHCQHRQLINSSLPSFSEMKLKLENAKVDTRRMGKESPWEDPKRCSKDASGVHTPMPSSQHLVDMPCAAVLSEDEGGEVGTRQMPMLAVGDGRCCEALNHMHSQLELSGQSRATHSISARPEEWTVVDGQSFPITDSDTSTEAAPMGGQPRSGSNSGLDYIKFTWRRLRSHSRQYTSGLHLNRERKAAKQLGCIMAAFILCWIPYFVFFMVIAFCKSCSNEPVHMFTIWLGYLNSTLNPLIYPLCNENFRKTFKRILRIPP
Assay type: tissue-based
For O=C(CCN1CCN2Cc3ccccc3CC2C1)Nc1ccccc1 (centres undefined), the Activity was 1.34 µM/L.
O=C(CCN1CCN(Cc2ccccc2)CC1)Nc1ccccc1F was tested, and the Activity was 1.32 µM/L.
Compound COc1ccccc1C(=O)NCCN1CCN2Cc3[nH]c4ccccc4c3CC2C1 (centres undefined) has an Activity of 0.364 µM/L.
O=C(CCN1CCN(Cc2ccccc2)CC1)Nc1ccccc1[N+](=O)[O-] showed an Activity of 1.7 µM/L.
Compound O=C(CCN1CCC(Cc2ccccc2)CC1)Nc1ccccc1F has an Activity of 0.832 µM/L.
Nc1ccccc1C(=O)NCCN1CCN2Cc3[nH]c4ccccc4c3CC2C1 (centres undefined) was tested, and the Activity was 0.925 µM/L.
Compound CN(C)CCOC1c2ccccc2-c2ccccc21 has an Activity of 0.039 µM/L.
In the case of CCc1ccccc1NC(=O)CCN1CCN2Cc3ccccc3CC2C1 (centres undefined), the Activity is reported as 0.525 µM/L.
O=C(NCCN1CCN(Cc2ccccc2)CC1)c1ccccc1Cl was tested, and the Activity was 0.696 µM/L.
O=C(CCN1CCN2Cc3[nH]c4ccccc4c3CC2C1)Nc1ccccc1F (centres undefined) was tested, and the Activity was 1.28 µM/L.
CCc1ccccc1NC(=O)CCN1CCC(Cc2ccccc2)CC1 gave an Activity of 0.477 µM/L.
Cc1ccccc1C(=O)NCCN1CCC(Cc2ccccc2)CC1 was tested, and the Activity was 1.07 µM/L.
With Cc1ccccc1C(=O)NCCN1CCN2Cc3[nH]c4ccccc4c3CC2C1 (centres undefined) the Activity was 0.283 µM/L.
CCc1ccccc1NC(=O)CCN1CCN2Cc3[nH]c4ccccc4c3CC2C1 (centres undefined) was tested, and the Activity was 0.634 µM/L.
Work on Cc1ccccc1C(=O)NCCN1CCN(Cc2ccccc2)CC1 yielded an Activity of 7.12 µM/L.
In the case of O=C(NCCN1CCN2Cc3[nH]c4ccccc4c3CC2C1)c1ccccc1[N+](=O)[O-] (centres undefined), the Activity is reported as 0.375 µM/L.
O=C(NCCN1CCN(Cc2ccccc2)CC1)c1ccccc1I was tested, and the Activity was 0.345 µM/L.
O=C(NCCN1CCN2Cc3[nH]c4ccccc4c3CC2C1)c1ccccc1 (centres undefined) showed an Activity of 0.535 µM/L.
With CN(C)[C@@H]1CO[C@@H](c2ccccc2)c2ccccc21 (relative stereo) the Activity was 0.51 µM/L.
For O=C(NCCN1CCN2Cc3[nH]c4ccccc4c3CC2C1)c1ccccc1Cl (centres undefined), the Activity was 0.206 µM/L.
Compound CN(C)C[C@@H]1O[C@H](c2ccccc2)c2ccccc21 (relative stereo) has an Activity of 0.0039 µM/L.
O=C(NCCN1CCN(Cc2ccccc2)CC1)c1ccccc1[N+](=O)[O-] gave an Activity of 1.32 µM/L.
In the case of O=C(NCCN1CCC(Cc2ccccc2)CC1)c1ccccc1Cl, the Activity is reported as 0.799 µM/L.
O=C(CCN1CCN2Cc3[nH]c4ccccc4c3CC2C1)Nc1ccccc1 (centres undefined) was tested, and the Activity was 1.6 µM/L.
O=C(CCN1CCN(Cc2ccccc2)CC1)Nc1ccccc1Cl gave an Activity of 0.836 µM/L.
CN(C)C[C@@H]1O[C@@H](c2ccccc2)c2ccccc21 (relative stereo) gave an Activity of 0.0039 µM/L.
Compound O=C(NCCN1CCN(Cc2ccccc2)CC1)c1ccccc1 has an Activity of 6.94 µM/L.
For O=C(CCN1CCC(Cc2ccccc2)CC1)Nc1ccccc1Cl, the Activity was 0.561 µM/L.
For O=C(CCN1CCN2Cc3[nH]c4ccccc4c3CC2C1)Nc1ccccc1Cl (centres undefined), the Activity was 0.979 µM/L.
For COc1ccccc1NC(=O)CCN1CCC(Cc2ccccc2)CC1, the Activity was 0.963 µM/L.
O=C(CCN1CCN2Cc3[nH]c4ccccc4c3CC2C1)Nc1ccccc1[N+](=O)[O-] (centres undefined) was tested, and the Activity was 1.74 µM/L.
Compound CCc1ccccc1NC(=O)CCN1CCN(Cc2ccccc2)CC1 has an Activity of 0.778 µM/L.
With O=C(NCCN1CCC(Cc2ccccc2)CC1)c1ccccc1 the Activity was 1.55 µM/L.
Compound O=C(NCCN1CCN(Cc2ccccc2)CC1)c1ccccc1Br has an Activity of 0.421 µM/L.
In the case of O=C(NCCN1CCC(Cc2ccccc2)CC1)c1ccccc1Br, the Activity is reported as 0.661 µM/L.
In the case of O=C(CCN1CCN2Cc3ccccc3CC2C1)Nc1ccccc1Cl (centres undefined), the Activity is reported as 0.677 µM/L.
O=C(CCN1CCC(Cc2ccccc2)CC1)Nc1ccccc1 was tested, and the Activity was 1.51 µM/L.
O=C(CCN1CCN(Cc2ccccc2)CC1)Nc1ccccc1 was tested, and the Activity was 2.17 µM/L.
O=C(CCN1CCN2Cc3ccccc3CC2C1)Nc1ccccc1[N+](=O)[O-] (centres undefined) gave an Activity of 1.32 µM/L.
